Laboratory results taken from patent US20230120211A1, “HDAC Degrader” (University of Leicester, priority 2020, published 2023).

Tests used:
CoREST = CoREST (Homo sapiens, UniProt Q13547); assay: HDAC inhibition assay, CoREST complex (Table 1, run under different conditions); assay type: biochemical; conditions: Table 1 conditions (differ from FIG. 3)
Method: Inhibition tests against LSD1-HDAC-CoREST complex were performed using a two-enzyme fluorescence-based HDAC assay. The inhibitor/PROTACs were dissolved at 50 mM in DMSO, then 1:2 serial dilutions performed using HDAC assay buffer (50 mM Tris pH 7.5, 150 mM NaCl) to afford range of concentrations.
The assays were performed in black 96-well plates with a reaction volume of 50 μL per well. All determinations were performed in triplicate. […] After an incubation of 20 minutes at 37° C. and 150 rpm, deacetylation was stopped by the addition of 50 μL of a developing solution containing trypsin (50 mM Tris pH 7.5, 100 mM NaCl, 10 mg/mL trypsin). […] HDAC Activity was calculated by subtracting the average blank fluorescence from the well fluorescence. Graphpad Prism software was utilised to determine IC50 values.

HDAC2 = target: T1, HDAC2 (Homo sapiens, UniProt Q92769); assay: HDAC2 degradation in HCT116 cells, quantitative western blot; assay type: cell-based; conditions: for Dmax: HCT-116, 24 h, read-out: HDAC 2 Degrader (% Degradation); for Dmax / HDAC 2 Degrader (% Degradation): HCT116, screened at 0.1, 1 and 10 μM, maximum degradation irrespective of concentration
T1 construct: endogenous in cells; host or cells: HCT116
Method: (§1) The compounds were screened at 0.1 μM, 1 μM and 10 μM in a HCT116 cell line. The maximum degradation observed irrespective of the concertation was recorded. The screening of the new compounds was done in 6-well plates, 5 mL media, with 400,000 cells per well to increase throughput.
(§2) HCT116 or mES cells were treated 24 hours after seeding. 24 hours post treatment, cells were harvested, lysed in lysis buffer (50 mM Tris-HCl, 150 mM NaCl, 0.5% NP-40, 0.5% Triton X-100) with protease inhibitor (Sigma, P8340), then incubated on ice for 30 minutes, before being centrifuged (18,000 ref, 15 minutes, 4° C.). The supernatant was collected, and protein concentrations quantified via Bradford Assay using Protein Assay Dye Reagent Concentrate (BIO-RAD). For histone extraction, an equal volume of 0.4 N H2SO4 was added to the pellets and the extracts placed at 4° C. overnight. Following overnight incubation, the tubes were centrifuged (18,000 ref, 15 minutes, 4° C.) and then the supernatant (histone extract) collected.
(§3) PageRuler™ Plus Prestained Ladder was used for size standards. After gel electrophoresis at 140V for 75-90 minutes the separated proteins were transferred onto nitrocellulose membrane at 30V for 60 minutes. The membranes were probed with primary antibodies (listed below) for 60-90 minutes. Blots were developed with complimentary IRDye conjugated secondary antibodies and the bands visualised using the Odyssey Infrared Imaging System. Image processing and band intensity quantification was performed using Image Studio Lite.

HDAC1 = target: T2, HDAC1 (Homo sapiens, UniProt Q13547); assay: HDAC1 degradation in HCT116 cells, quantitative western blot; assay type: cell-based; conditions: for Dmax: HCT-116, 24 h, HCT116, screened at 0.1, 1 and 10 μM, maximum degradation irrespective of concentration, read-out: HDAC1 Degrader (% Degradation)
T2 construct: endogenous in cells; host or cells: HCT116
Method: as §1, §2, §3

HDAC3 = target: T3, HDAC3 (Homo sapiens, UniProt O15379); assay: HDAC3 degradation in HCT116 cells, quantitative western blot; assay type: cell-based; conditions: HCT-116, 24 h; HCT116, screened at 0.1, 1 and 10 μM; maximum degradation irrespective of concentration; read-out: HDAC 3 degrader (% Degradation)
T3 construct: endogenous in cells; host or cells: HCT116
Method: as §1, §2, §3

NuRD = NuRD (Homo sapiens, UniProt Q13547); assay: HDAC inhibition assay, NuRD complex (Table 1); assay type: biochemical
MiDAC = MiDAC (Homo sapiens, UniProt Q13547); assay: HDAC inhibition assay, MiDAC complex (Table 1); assay type: biochemical
H3K56ac = H3K56ac levels in E14 mouse embryonic stem cells, quantitative western blot; assay type: cell-based; conditions: E14 mES cells, 24 h; CI-994 40 μM, Panobinostat 30 nM
Method: The inventors proceeded to assess their compounds effects on HDAC activity in cells.
To examine the ability of PROTACs 1-4 to reduce HDAC1, 2 and 3 activity in cells they began by measuring H3K56ac using quantitative western blotting (see FIG. 3B).
as §2
as §3, with “Western blots were run on NuPAGE™ 4-12% Bis-Tris gels with 20-30 μg of protein or 10 μL of acid-extracted histone loaded per lane, using NuPAGE™ LDS Sample Buffer (4×). PageRuler™” for “PageRuler™”

[1] = HCT116, side by side with PROTAC 4, FIG. 4C

T2 sequence (Q13547 whole entry): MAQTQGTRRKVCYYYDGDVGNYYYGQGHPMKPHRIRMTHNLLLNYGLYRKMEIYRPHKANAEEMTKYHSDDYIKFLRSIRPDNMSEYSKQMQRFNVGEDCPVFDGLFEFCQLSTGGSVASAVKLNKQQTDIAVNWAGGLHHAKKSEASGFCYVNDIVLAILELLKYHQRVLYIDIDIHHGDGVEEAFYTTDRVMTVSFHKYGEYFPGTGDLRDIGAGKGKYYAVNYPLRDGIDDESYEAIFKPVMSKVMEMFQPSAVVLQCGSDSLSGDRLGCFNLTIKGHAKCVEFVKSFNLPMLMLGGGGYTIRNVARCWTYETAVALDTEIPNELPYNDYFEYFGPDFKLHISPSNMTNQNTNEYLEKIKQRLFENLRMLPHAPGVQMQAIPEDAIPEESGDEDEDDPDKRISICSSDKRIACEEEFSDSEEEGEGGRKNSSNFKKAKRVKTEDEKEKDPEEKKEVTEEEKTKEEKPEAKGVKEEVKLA
Chain of CoREST (Q13547 whole entry, other chains not shown): as the sequence (Q13547 whole entry) above
Chain of CoREST (Q9UKL0 86-485 partner limits assumed, other chains not shown): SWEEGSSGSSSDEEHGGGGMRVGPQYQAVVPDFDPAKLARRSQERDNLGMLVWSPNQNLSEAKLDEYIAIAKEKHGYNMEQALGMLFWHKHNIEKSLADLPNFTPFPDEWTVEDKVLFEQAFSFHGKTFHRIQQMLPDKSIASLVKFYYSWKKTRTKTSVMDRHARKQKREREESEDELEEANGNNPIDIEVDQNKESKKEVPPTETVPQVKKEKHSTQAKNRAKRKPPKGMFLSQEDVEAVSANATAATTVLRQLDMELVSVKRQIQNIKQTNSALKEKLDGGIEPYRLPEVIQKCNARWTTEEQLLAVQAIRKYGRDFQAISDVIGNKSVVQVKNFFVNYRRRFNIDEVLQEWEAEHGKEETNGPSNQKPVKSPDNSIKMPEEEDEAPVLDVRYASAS
Chain of NuRD (Q13547 whole entry): as the sequence (Q13547 whole entry) above
Chain of NuRD (Q13330 162-546 partner limits assumed): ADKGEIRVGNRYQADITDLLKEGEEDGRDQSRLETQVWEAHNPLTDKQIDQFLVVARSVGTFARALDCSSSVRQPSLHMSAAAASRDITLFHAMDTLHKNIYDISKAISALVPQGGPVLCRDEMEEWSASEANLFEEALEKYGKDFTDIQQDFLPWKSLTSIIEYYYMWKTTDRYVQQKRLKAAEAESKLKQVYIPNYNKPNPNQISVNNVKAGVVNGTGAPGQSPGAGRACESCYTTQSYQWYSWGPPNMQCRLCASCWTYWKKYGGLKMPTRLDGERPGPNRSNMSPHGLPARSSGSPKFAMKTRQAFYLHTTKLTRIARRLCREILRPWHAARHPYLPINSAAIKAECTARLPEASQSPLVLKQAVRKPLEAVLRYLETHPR
Chain of NuRD (Q09028 whole entry partner): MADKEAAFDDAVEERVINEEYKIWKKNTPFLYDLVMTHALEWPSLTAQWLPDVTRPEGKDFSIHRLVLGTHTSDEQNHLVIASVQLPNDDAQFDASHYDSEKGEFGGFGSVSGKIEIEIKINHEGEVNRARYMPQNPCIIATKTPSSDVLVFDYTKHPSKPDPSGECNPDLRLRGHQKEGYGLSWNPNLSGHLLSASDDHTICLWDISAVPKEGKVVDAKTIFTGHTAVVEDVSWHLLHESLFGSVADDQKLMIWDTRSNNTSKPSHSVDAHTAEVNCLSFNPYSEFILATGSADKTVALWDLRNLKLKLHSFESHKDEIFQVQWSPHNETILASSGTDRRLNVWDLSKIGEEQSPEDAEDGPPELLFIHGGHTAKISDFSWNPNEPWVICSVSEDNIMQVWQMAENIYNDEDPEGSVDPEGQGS
T3 sequence (O15379 whole entry): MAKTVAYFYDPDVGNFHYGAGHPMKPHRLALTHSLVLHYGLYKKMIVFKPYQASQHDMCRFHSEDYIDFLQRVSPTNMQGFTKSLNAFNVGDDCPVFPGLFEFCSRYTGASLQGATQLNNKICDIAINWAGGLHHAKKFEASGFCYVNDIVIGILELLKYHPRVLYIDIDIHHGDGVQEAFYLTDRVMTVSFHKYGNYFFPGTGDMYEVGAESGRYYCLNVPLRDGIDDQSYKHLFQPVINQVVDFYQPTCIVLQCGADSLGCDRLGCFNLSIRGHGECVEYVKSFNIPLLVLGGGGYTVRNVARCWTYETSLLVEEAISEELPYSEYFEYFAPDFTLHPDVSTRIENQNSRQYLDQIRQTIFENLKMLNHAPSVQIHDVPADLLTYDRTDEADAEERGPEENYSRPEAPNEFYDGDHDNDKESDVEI
T1 sequence (Q92769 whole entry): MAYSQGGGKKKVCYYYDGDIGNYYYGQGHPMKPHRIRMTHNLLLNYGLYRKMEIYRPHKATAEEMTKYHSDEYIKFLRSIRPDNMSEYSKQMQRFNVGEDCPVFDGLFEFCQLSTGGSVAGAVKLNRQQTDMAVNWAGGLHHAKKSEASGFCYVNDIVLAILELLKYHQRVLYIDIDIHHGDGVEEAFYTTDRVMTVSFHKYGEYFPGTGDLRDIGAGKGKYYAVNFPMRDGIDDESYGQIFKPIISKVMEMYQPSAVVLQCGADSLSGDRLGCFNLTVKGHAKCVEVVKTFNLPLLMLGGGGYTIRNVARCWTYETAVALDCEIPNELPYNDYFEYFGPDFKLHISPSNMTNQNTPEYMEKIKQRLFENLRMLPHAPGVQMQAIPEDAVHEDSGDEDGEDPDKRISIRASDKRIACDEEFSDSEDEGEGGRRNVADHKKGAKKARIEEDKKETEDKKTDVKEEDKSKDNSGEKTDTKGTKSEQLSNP
Chain of MiDAC (Q13547 whole entry): as the sequence (Q13547 whole entry) above
Chain of MiDAC (Q6PJG2 628-887 partner limits assumed): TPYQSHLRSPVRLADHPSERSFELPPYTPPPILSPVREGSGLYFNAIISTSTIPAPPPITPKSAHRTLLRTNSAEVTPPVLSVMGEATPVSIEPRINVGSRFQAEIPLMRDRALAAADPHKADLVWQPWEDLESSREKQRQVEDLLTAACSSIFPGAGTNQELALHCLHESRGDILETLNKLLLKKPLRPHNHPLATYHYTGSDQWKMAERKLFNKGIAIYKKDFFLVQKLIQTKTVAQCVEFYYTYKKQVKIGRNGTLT
Chain of MiDAC (Q9H147 whole entry partner): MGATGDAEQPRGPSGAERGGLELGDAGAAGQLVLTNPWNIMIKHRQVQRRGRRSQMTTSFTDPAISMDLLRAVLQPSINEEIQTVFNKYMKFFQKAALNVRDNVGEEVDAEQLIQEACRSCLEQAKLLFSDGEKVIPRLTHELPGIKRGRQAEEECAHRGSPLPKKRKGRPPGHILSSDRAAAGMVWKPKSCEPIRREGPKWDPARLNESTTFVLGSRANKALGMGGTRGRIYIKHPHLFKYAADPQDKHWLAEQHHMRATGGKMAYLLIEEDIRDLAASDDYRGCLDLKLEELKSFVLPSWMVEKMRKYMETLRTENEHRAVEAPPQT

Structure (SMILES) | Dmax (HDAC2) [%] | Dmax (HDAC1) [%] | Dmax (HDAC3) [%] | other results
Cc1ncsc1-c1ccc(CNC(=O)[C@@H]2C[C@@H](O)CN2C(=O)[C@@H](NC(=O)COCCCCCCCCCOCC(=O)Nc2ccc(C(=O)Nc3ccccc3N)cc2)C(C)(C)C)cc1 [PROTAC16, (2S,4R)-1-((S)-2-(2-((9-(2-((4-((2-aminophenyl)carbamoyl)phenyl)amino)-2-oxoethoxy)nonyl)oxy)acetamido)-3,3-dimethylbutanoyl)-4-hydroxy-N-(4-(4-methylthiazol-5-yl)benzyl)pyrrolidine-2-carboxamide] | 58 | 67 | 67 | IC50 (CoREST): 4.13 µM; IC50 (NuRD): 11.8 µM
Cc1ncsc1-c1ccc(CNC(=O)[C@@H]2C[C@@H](O)CN2C(=O)[C@@H](NC(=O)COCCOCCOCC(=O)Nc2ccc(C(=O)Nc3cc(-c4cccs4)ccc3N)cc2)C(C)(C)C)cc1 [PROTAC22, (2S,4R)-1-((S)-14-((4-((2-amino-5-(thiophen-2-yl)phenyl)carbamoyl)phenyl)amino)-2-(tert-butyl)-4,14-dioxo-6,9,12-trioxa-3-azatetradecanoyl)-4-hydroxy-N-(4-(4-methylthiazol-5-yl)benzyl)pyrrolidine-2-carboxamide] | – | 32 | 32 | HDAC 2 Degrader (% Degradation) (HDAC2): No
Cc1ncsc1-c1ccc(CNC(=O)[C@@H]2C[C@H](O)CN2C(=O)[C@@H](NC(=O)CCCCCCCCCCC(=O)Nc2ccc(C(=O)Nc3ccccc3N)cc2)C(C)(C)C)cc1 [NC-PROTAC4, N1-(4-((2-aminophenyl)carbamoyl)phenyl)-N12-((S)-1-((2S,4S)-4-hydroxy-2-((4-(4-methylthiazol-5-yl)benzyl)carbamoyl)pyrrolidin-1-yl)-3,3-dimethyl-1-oxobutan-2-yl)dodecanediamide] | – | – | – | HDAC2 degradation (HDAC2; [1]): No degradation; HDAC1 degradation (HDAC1; [1]): No degradation
CN[C@@H](C)C(=O)N[C@H](C(=O)N1C[C@@H](NC(=O)CCCCCCCCCCC(=O)Nc2ccc(C(=O)Nc3ccccc3N)cc2)C[C@H]1C(=O)N[C@@H]1CCCc2ccccc21)C1CCCCC1 [PROTAC26, N^1-(4-((2-aminophenyl)carbamoyl)phenyl)-N^12-((3S,5S)-1-((S)-2-cyclohexyl-2-((S)-2-(methylamino)propanamido)acetyl)-5-(((R)-1,2,3,4-tetrahydronaphthalen-1-yl)carbamoyl)pyrrolidin-3-yl) dodecanediamide] | 58 | 88 | 88 | –
Cc1ncsc1-c1ccc(CNC(=O)[C@@H]2C[C@@H](O)CN2C(=O)[C@@H](NC(=O)COCCCCCCOCC(=O)Nc2ccc(C(=O)Nc3ccccc3N)cc2)C(C)(C)C)cc1 [PROTAC12, (2S,4R)-1-((S)-2-(2-((6-(2-((4-((2-aminophenyl)carbamoyl)phenyl)amino)-2-oxoethoxy)hexyl)oxy)acetamido)-3,3-dimethylbutanoyl)-4-hydroxy-N-(4-(4-methylthiazol-5-yl)benzyl)pyrrolidine-2-carboxamide] | 46 | 42 | 32 | IC50 (CoREST): 7.17 µM; IC50 (MiDAC): 5.15 µM; IC50 (NuRD): 8.13 µM
Cc1ncsc1-c1ccc(CNC(=O)[C@@H]2C[C@@H](O)CN2C(=O)[C@@H](NC(=O)C2(F)CC2)C(C)(C)C)c(OCCCCCCCCCCCC(=O)Nc2ccc(C(=O)Nc3ccccc3N)cc2)c1 [PROTAC36, (2S,4R)-N-(2-((12-((4-((2-aminophenyl)carbamoyl)phenyl)amino)-12-oxododecyl)oxy)-4-(4-methylthiazol-5-yl)benzyl)-1-((S)-2-(1-fluorocyclopropane-1-carboxamido)-3,3-dimethylbutanoyl)-4-hydroxypyrrolidine-2-carboxamide] | 28 | 51 | 69 | –
Cc1ncsc1-c1ccc(CNC(=O)[C@@H]2C[C@@H](O)CN2C(=O)[C@@H](NC(=O)CCCCCCCCCCCCC(=O)Nc2ccc(C(=O)Nc3ccccc3N)cc2)C(C)(C)C)cc1 [PROTAC34, N1-(4-((2-aminophenyl)carbamoyl)phenyl)-N14-((S)-1-((2S,4R)-4-hydroxy-2-((4-(4-methylthiazol-5-yl)benzyl)carbamoyl)pyrrolidin-1-yl)-3,3-dimethyl-1-oxobutan-2-yl)tetradecanediamide] | 44 | 47 | 30 | –
Nc1ccccc1NC(=O)c1ccc(NC(=O)CCCCCCCCCCCNC(=O)COc2cccc3c2C(=O)N(C2CCC(=O)NC2=O)C3=O)cc1 (centres unmarked) [PROTAC2, N-(2-aminophenyl)-4-(12-(2-((2-(2,6-dioxopiperidin-3-yl)-1,3-dioxoisoindolin-4-yl)oxy)acetamido)dodecanamido)benzamide] | – | – | – | H3K56 acetylation level (H3K56ac): increase in acetylation to similar levels
Cc1ncsc1-c1ccc(CNC(=O)[C@@H]2C[C@@H](O)CN2C(=O)[C@@H](NC(=O)CCCCCCCC(=O)Nc2ccc(C(=O)Nc3ccccc3N)cc2)C(C)(C)C)cc1 [PROTAC6, N1-(4-((2-aminophenyl)carbamoyl)phenyl)-N9-((S)-1-((2S,4R)-4-hydroxy-2-((4-(4-methylthiazol-5-yl)benzyl)carbamoyl)pyrrolidin-1-yl)-3,3-dimethyl-1-oxobutan-2-yl)nonanediamide] | – | 60 | – | IC50 (CoREST): 0.244 µM; IC50 (MiDAC): 1.69 µM; HDAC 2 Degrader (% Degradation) (HDAC2): partial; IC50 (NuRD): 0.338 µM
CC(=O)N[C@H](C(=O)N1C[C@H](O)C[C@H]1C(=O)NCc1ccc(-c2scnc2C)cc1OCCCCCCCCCCCC(=O)Nc1ccc(C(=O)Nc2ccccc2N)cc1)C(C)(C)C [PROTAC35, (2S,4R)-1-((S)-2-acetamido-3,3-dimethylbutanoyl)-N-(2-((12-((4-((2-aminophenyl)carbamoyl)phenyl)amino)-12-oxododecyl)oxy)-4-(4-methylthiazol-5-yl)benzyl)-4-hydroxypyrrolidine-2-carboxamide] | 49 | 61 | 38 | –
Cc1ncsc1-c1ccc(CNC(=O)[C@@H]2C[C@@H](O)CN2C(=O)[C@@H](NC(=O)CCCCCCCn2cc(COC(=O)NCc3ccc(C(=O)Nc4ccccc4N)cc3)nn2)C(C)(C)C)cc1 [PROTAC29, (1-(8-(((S)-1-((2S,4R)-4-hydroxy-2-((4-(4-methylthiazol-5-yl)benzyl)carbamoyl)pyrrolidin-1-yl)-3,3-dimethyl-1-oxobutan-2-yl)amino)-8-oxooctyl)-1H-1,2,3-triazol-4-yl)methyl(4-((2-aminophenyl)carbamoyl)benzyl)carbamate] | 23 | 39 | 64 | –
CC(=O)Nc1ccc(C(=O)Nc2ccccc2N)cc1 [CI-994, 4-acetamido-N-(2-aminophenyl)benzamide, reference compound] | – | – | – | H3K56 acetylation level (H3K56ac): increased
CN[C@@H](C)C(=O)N[C@H](C(=O)N1CCC[C@H]1c1nc(C(=O)c2cccc(OCCCCCCCCCCCC(=O)Nc3ccc(C(=O)Nc4ccccc4N)cc3)c2)cs1)C1CCCCC1 [PROTAC37, N-(2-aminophenyl)-4-(12-(3-(2-((S)-1-((S)-2-cyclohexyl-2-((S)-2-(methylamino)propanamido)acetyl)pyrrolidin-2-yl)thiazole-4-carbonyl)phenoxy)dodecanamido)benzamide] | 16 | 38 | 37 | –
